Test results from the SangsterLogP compilation.

CNc1nc(C)nc(C(Cl)(Cl)Cl)n1
logP: 2.39

Cc1nc(N)nc(C(Cl)(Cl)Cl)n1
logP: 1.77

CCCNc1nc(C)nc(C(Cl)(Cl)Cl)n1
logP: 3.29

CSc1nc(N)nc(C(Cl)(Cl)Cl)n1
logP: 3.12

Cc1nc(C(Cl)(Cl)Cl)nc(C(Cl)(Cl)Cl)n1
logP: 4.1

Cc1nc(NCc2ccccc2)nc(C(Cl)(Cl)Cl)n1
logP: 3.86

Nc1nc(N)nc(C(Cl)(Cl)Cl)n1
logP: 1.24

O=C1OC(=Nc2ccc(Cl)cc2)C2=C1CCCC2
logP: 3.81

O=C1C2=C(CCCC2)C(=O)N1c1ccc(Cl)cc1
logP: 3.26

CCCNc1nc(C(Cl)(Cl)Cl)nc(C(Cl)(Cl)Cl)n1
logP: 4.09

COc1nc(N)nc(C(Cl)(Cl)Cl)n1
logP: 2.39

ClC(Cl)(Cl)c1nc(Nc2ccccc2)nc(C(Cl)(Cl)Cl)n1
logP: 4.39

COc1nc(C(Cl)(Cl)Cl)nc(C(Cl)(Cl)Cl)n1
logP: 3.64

CNc1nc(C(Cl)(Cl)Cl)nc(C(Cl)(Cl)Cl)n1
logP: 3.23

ClC(Cl)(Cl)c1nc(NCc2ccccc2)nc(C(Cl)(Cl)Cl)n1
logP: 4.93

Cc1nc(N(C)C)nc(C(Cl)(Cl)Cl)n1
logP: 3.78

Cc1nc(Nc2ccccc2)nc(C(Cl)(Cl)Cl)n1
logP: 3.41

ClC(Cl)(Cl)c1nc(C(Cl)(Cl)Cl)nc(C(Cl)(Cl)Cl)n1
logP: 3.75

Nc1nc(C(Cl)(Cl)Cl)nc(C(Cl)(Cl)Cl)n1
logP: 2.48

CSc1nc(C(Cl)(Cl)Cl)nc(C(Cl)(Cl)Cl)n1
logP: 4.42

CN(C)c1nc(C(Cl)(Cl)Cl)nc(C(Cl)(Cl)Cl)n1
logP: 4.94
